Structures are written as SMILES. “Also recorded” adds a separate entry of the source. Like-named read-outs stand apart in the source and are kept apart here. Bounds are passed on as bounds.

Here are results for two molecules from US8906945B2 (priority 2009, dated 2014).

Data set [1] has as its system HeLa cell internalization of P. aeruginosa. The experiment in a line: Gentamicin protection assay of bacterial internalization. The conditions noted are these: 50 μM, ExoT-producing P. aeruginosa, MOI 10.
Data set [2] has as its system T3SS-mediated secretion of ExoS′-βLA fusion protein from P. aeruginosa strain MDM973. As to the kind of experiment: microbe, parasite or virus in culture. Format: cell-based, Pseudomonas aeruginosa. Particulars: for IC50: Pseudomonas aeruginosa.
The subject of a further data set is P. aeruginosa. The experiment in a line: Minimum inhibitory concentration (broth microdilution). The conditions noted are these: Pseudomonas aeruginosa, read-out: MIC vs. P. aeruginosa.
Data set [3] deals with Chlamydia trachomatis L2 in Hep-2 cells. As to the kind of experiment: Chlamydia trachomatis growth inhibition assay. The data set is classed as cell-based. The procedure: Inhibition of the growth of Chlamydia trachomatis L2 strain by compounds was measured in 24-well plates essentially according to the method of Wolf et al. (59). Confluent monolayer Hep-2 cells were infected with L2 at an MOI of 0.5 and treated with compounds at indicated concentrations for 48 h. Then cultures were collected and sonicated. Entire lysates were used for counting inclusion forming units (IFUs) as a measurement of production of Chlamydia progeny elementary bodies (EBs) by re-plating onto fresh HeLa monolayers. An uninhibited control (DMSO only) and a complete inhibition control (chloramphenicol, 200 μg/ml) were included. Experiments were done in triplicate.

Data set [4] concerns P. aeruginosa T3SS (exoT-luxCDABE reporter strain MDM852). The data set is classed as cell-based, Pseudomonas aeruginosa. The conditions noted are these: for Serum Effect: % inhibition of exoT-lux RLU in the absence of serum/% inhibition in the presence of 10% fetal calf serum.
The test system of data set [5] is T3SS-mediated secretion of YopE-βLA fusion protein from Y. pestis strain JG153/pMM85. The experiment in a line: microbe, parasite or virus in culture. Format: cell-based. Particulars: Yersinia pestis.
Another data set in a line: in vitro. Particulars: human.
A further data set concerns HeLa cells. Particulars: ratio of HeLa CC50 vs ExoS′-βLA IC50.
Data set [6] deals with ExoU translocation from P. aeruginosa strain PAKΔSTYexoU into CHO cells. The experiment in a line: Inhibition of P. aeruginosa ExoU-dependent CHO cell killing (LDH release). The conditions noted are these: ExoU-secreting P. aeruginosa, MOI 5. (In general: Release of lactate dehydrogenase indicates damage to the cell membrane.)
Setting [7] is: 50 μM added after 2.5 hours of T3SS induction.
[8] abbreviates: read-out: ExoS′-βLA IC50, Table 3, secretion from P. aeruginosa strain MDM973 reduced by 50%.

As usually defined, the IC50 is the point on the concentration scale where inhibition reaches its midpoint. Broadly, the MIC is the smallest concentration in the dilution series that meets the test's criterion for growth inhibition. On to `CC(Oc1ccc(Cl)cc1Cl)C(=O)NCc1ccc2c(c1)OCO2` (racemic) [Compound 1, N-(benzo[d][1,3]dioxol-5-ylmethyl)-2-(2,4-dichlorophenoxy)propanamide], for which the “stimulation of internalization of bacterial cells by HeLa cells” value in [1] is listed as “over 11 fold”. Moreover, the “time to 50% inhibition of ExoS′-βLA secretion” value in data set [2] (setting [7]) was not above 15 min. Moreover, the “time to 100% inhibition of ExoS′-βLA secretion” value in [2] (setting [7]) was not above 45 min. The half-inhibitory concentration (IC50) is 12.5 µM in data set [2] (setting [8]); 10 µM in data set [2] (read-out: IC50 (μM) (ExoS′-βLA assay), Table 4); approximately 38 µM in data set [5] (read-out: IC50 of YopE-βLA secretion from Y. pestis strain JG153); 22 µM in [5] (read-out: yopE-βLA IC50). The “potency when administered during or after the 2.5 hour EGTA induction of T3SS” value in data set [2] (unpublished observations) is on record as “equally potently”. Moreover, the MIC with P. aeruginosa was more than 100 µM. Also, in data set [3] (50 μM, MOI 0.5, listed as MBX 1641), the “reduction of growth of C. trachomatis L2 in Hep-2 cells” value is reported as “significantly reduced; also recorded: inhibits the growth”. Also, in data set [3] (FIG. 3D), the “concentration dependence of effect on C. trachomatis growth in Hep-2 cells” value is “concentration-dependent effect”. In data set [4] (both at 50 μM compound), the “Serum Effect” value is 3.7. Also, the “z-score in the high throughput screen” value in data set [4] (strain MDM852, RLU at 200 minutes) came out at 10.

Consider `Cc1ccc(N2C(=O)C3C(C2=O)C2(C)C=CC3(C)O2)c(C)c1` (centres unmarked) [Compound 8, 2-(2,4-dimethylphenyl)-4,7-dimethyl-3a,4,7,7a-tetrahydro-1H-4,7-epoxyisoindole-1,3(2H)-dione], for which the results for the IC50 in [2] (setting [8]), in data set [2] (read-out: IC50 in the ExoS′-βLA secretion assay) and in data set [5] (read-out: yopE-βLA IC50) were 15 µM, not above 25 µM and 103 µM, respectively. For the same molecule, the CC50 in “in vitro” (CC50 (cytotoxicity, HeLa), absence of serum) was not below 100 µM; in the data set “in vitro” (HeLa CC50), more than 100 µM. Besides, the MIC with P. aeruginosa is more than 100 µM. Further, in data set [4] (both at 50 μM compound), the “Serum Effect” value came to 3.1. The “RLU Selectivity” value in [4] (% inhibition of exoT-lux RLU/% inhibition of lac-lux RLU, both at 50 μM compound) was determined as 9.2. Besides, in the data set on HeLa cells, the CC50/IC50 is on record as more than 6.7. Also, the “rescue of CHO cells from ExoU cytotoxicity (in words)” value in data set [6] is reported as “failed to inhibit T3SS-mediated translocation”.
